For one assay, the target named is TYK2 JH1 kinase (Homo sapiens (Human), UniProt P29597). Briefly: Tyk2 Radioactive Kinase Assay. Type of assay: biochemical. The note with it: ATP at 10 μM. The method, then: (§1) Peptide substrate, [KKSRGDYMTMQIG (SEQ ID NO: 2)], (20 μM) is prepared in reaction buffer (20 mM Hepes pH 7.5, 10 mM MgCl2, 1 mM EGTA, 0.02% Brij35, 0.02 mg/mL BSA, […], 2 mM DTT, 1% DMSO. TYK2 (Invitrogen) kinase is added, followed by compounds in DMSO. 33PATP is added to initiate the reaction in ATP at 10 μM. Kinase reaction is incubated for 120 min at room temp and reactions are spotted onto P81 ion exchange paper (Whatman #3698-915), and then washed extensively in 0.75% phosphoric acid, prior to reading the radioactivity counts. For JAK2 (Invitrogen) kinase assay the peptide substrate poly[Glu:Tyr] (4:1), 0.2 mg/ml is used, in the reaction carried out the same as for TYK2.
Sequence of TYK2 JH1 kinase (P29597 833-1187): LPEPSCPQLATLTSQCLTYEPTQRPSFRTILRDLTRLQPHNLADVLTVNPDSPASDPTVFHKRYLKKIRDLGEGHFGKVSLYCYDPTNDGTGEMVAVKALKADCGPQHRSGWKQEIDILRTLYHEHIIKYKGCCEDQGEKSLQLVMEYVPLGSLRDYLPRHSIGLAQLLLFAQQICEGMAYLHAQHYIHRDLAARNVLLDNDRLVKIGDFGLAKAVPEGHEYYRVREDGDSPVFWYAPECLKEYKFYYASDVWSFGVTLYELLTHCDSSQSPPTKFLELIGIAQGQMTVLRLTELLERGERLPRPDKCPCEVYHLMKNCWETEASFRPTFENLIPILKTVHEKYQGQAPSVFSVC

Assay [1] has as its target human TYK2 (JH2domain-pseudokinase) (Homo sapiens (Human), UniProt P29597). The assay is described as follows: TYK2 JH2 Domain Binding Assay (KINOMEscan).
Another assay deals with GM-CSF induced pSTAT5. Briefly: GM-CSF Induced pSTAT5 in Human PBMC. It counts as cell-based. The note with it: 5 ng/mL GM-CSF, read-out: IC50 of inhibition of pSTAT5 production. On the procedure:
Cells are prepared for analysis as in the above procedure and 15 μl of GM-CSF (final concentration 5 ng/mL) is added for 20 minutes prior to pSTAT5 and total STAT5 analysis using cell lysates prepared and analyzed by MSD reagents as per manufacturer protocol. The final DMSO concentration of compound in the assay is 0.1%.

The target in the next assay is JAK2 JH1 kinase (Homo sapiens (Human), UniProt O60674). Briefly: JAK2 Radioactive Kinase Assay. It counts as biochemical. To be noted: ATP at 10 μM. The method, then:
as §1

Where [2] appears, read: Table 4, JH2 binding assay, read-out: JH2 Kd.
Setting [3] is: Table 5, Tyk2 JH2 Domain Binding Assay, read-out: JH2 Kd.
The mark [4] stands for this setting: Tyk2 JH2 Domain Binding Assay, read-out: Kd.

The structures appear in SMILES notation. pIC50, pKd: −log10 of the molar value. Where two headings read alike, the source gives them in different places.

Sequence of JAK2 JH1 kinase (O60674 808-1132): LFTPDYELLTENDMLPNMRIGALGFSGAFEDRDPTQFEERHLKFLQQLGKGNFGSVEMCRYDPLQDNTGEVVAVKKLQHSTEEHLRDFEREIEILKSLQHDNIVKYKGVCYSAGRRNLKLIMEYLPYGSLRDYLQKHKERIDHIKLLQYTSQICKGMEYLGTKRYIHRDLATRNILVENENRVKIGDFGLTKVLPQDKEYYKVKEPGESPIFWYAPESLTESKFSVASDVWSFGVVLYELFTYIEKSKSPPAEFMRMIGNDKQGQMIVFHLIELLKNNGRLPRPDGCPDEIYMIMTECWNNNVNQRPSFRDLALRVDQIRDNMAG
Sequence of human TYK2 (JH2domain-pseudokinase) (P29597 556-888): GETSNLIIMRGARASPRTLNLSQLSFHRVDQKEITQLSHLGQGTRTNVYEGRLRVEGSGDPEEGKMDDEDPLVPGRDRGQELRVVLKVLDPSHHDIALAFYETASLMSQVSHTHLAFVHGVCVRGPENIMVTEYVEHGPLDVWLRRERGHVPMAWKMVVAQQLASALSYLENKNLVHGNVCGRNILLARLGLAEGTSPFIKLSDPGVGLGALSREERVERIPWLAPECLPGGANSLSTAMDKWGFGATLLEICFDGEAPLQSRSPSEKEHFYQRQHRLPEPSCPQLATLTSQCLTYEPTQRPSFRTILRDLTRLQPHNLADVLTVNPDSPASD

Consider `COc1c(Nc2cc(NC(=O)C3CC3)nc3[nH]n(C)c(=O)c23)cccc1-c1nnn(C)n1` [Compound I-1], for which the “inhibitory activity against TYK2 JH1 kinase function” value at TYK2 JH1 kinase was “no detectable inhibitory activity”. For the same compound, the pKd in assay [1] (setting [2]) is greater than 10.00.
The matching figures for `COCc1ccnc(Nc2cc(Nc3cccc(-c4nnn(C)n4)c3OC)c3c(=O)n(C)[nH]c3n2)c1` [Compound I-2, 4-((2-methoxy-3-(2-methyl-2H-tetrazol-5-yl)phenyl)amino)-6-((4-(methoxymethyl)pyridin-2-yl)amino)-2-methyl-1,2-dihydro-3H-pyrazolo[3,4-b]pyridin-3-one]: “no detectable inhibitory activity” and 9.30 to 10.00.
Take `COc1c(Nc2cc(NC(=O)C3CC3)ncc2-c2ncc(Cl)s2)cccc1-c1nnn(C)n1` [VIII-1, N-(5-(5-chlorothiazol-2-yl)-4-((2-methoxy-3-(2-methyl-2H-tetrazol-5-yl)phenyl)amino)pyridin-2-yl)cyclopropanecarboxamide]: the negative-log IC50 (pIC50) in the assay with GM-CSF induced pSTAT5 is less than 4.30. In assay [1] (setting [3]), the pKd was 8.00 to 9.00.
Take `COc1c(Nc2cc(NC(=O)C3CC3)ncc2-c2ncc(F)s2)cccc1-c1nnn(C)n1` [VIII-2, N-(5-(5-fluorothiazol-2-yl)-4-((2-methoxy-3-(2-methyl-2H-tetrazol-5-yl)phenyl)amino)pyridin-2-yl)cyclopropanecarboxamide]: on TYK2 JH1 kinase, the “inhibitory activity against TYK2 JH1 kinase function” value is “no detectable inhibitory activity”. The “inhibitory activity against JAK2 JH1 kinase function” value at JAK2 JH1 kinase is on record as “no detectable inhibitory activity”. Besides, in assay [1] (setting [3]), the negative-log Kd (pKd) is 7.00 to 8.00.
For the compound `COc1c(Nc2cc(NC(=O)C3CC3)ncc2-c2nnc(C(F)(F)F)o2)cccc1-c1ncn(C)n1` [VIII-3, N-(4-((2-methoxy-3-(1-methyl-1H-1,2,4-triazol-3-yl)phenyl)amino)-5-(5-(trifluoromethyl)-1,3,4-oxadiazol-2-yl)pyridin-2-yl)cyclopropanecarboxamide], the “inhibitory activity against TYK2 JH1 kinase function” value on TYK2 JH1 kinase is “no detectable inhibitory activity”. The “inhibitory activity against JAK2 JH1 kinase function” value on JAK2 JH1 kinase was “no detectable inhibitory activity”. The pKd in assay [1] (setting [3]) was less than 7.00.
Regarding `COC(=O)c1nnc(-c2cnc(NC(=O)C3CC3)cc2Nc2cccc(-c3ncn(C)n3)c2OC)o1` [VIII-4, methyl 5-(6-(cyclopropanecarboxamido)-4-((2-methoxy-3-(1-methyl-1H-1,2,4-triazol-3-yl)phenyl)amino)pyridin-3-yl)-1,3,4-oxadiazole-2-carboxylate], on TYK2 JH1 kinase, the “inhibitory activity against TYK2 JH1 kinase function” value is on record as “no detectable inhibitory activity”. The “inhibitory activity against JAK2 JH1 kinase function” value on JAK2 JH1 kinase is given as “no detectable inhibitory activity”. Moreover, the pKd in assay [1] (setting [3]) was 8.00 to 9.00.
Take `COc1c(Nc2cc(Nc3ccc(C)nn3)ncc2-c2nnc(CO)o2)cccc1-c1ncn(C)n1` [VIII-12, (5-(4-((2-methoxy-3-(1-methyl-1H-1,2,4-triazol-3-yl)phenyl)amino)-6-((6-methylpyridazin-3-yl)amino)pyridin-3-yl)-1,3,4-oxadiazol-2-yl)methanol]: in assay [1] (setting [3]), the negative logarithm of the Kd (pKd) was 9.00 to 10.00.
In the case of `COc1c(Nc2cc(Nc3cccc(C#N)n3)ncc2-c2nnc(CO)o2)cccc1-c1ncn(C)n1` [VIII-13, 6-((5-(5-(hydroxymethyl)-1,3,4-oxadiazol-2-yl)-4-((2-methoxy-3-(1-methyl-1H-1,2,4-triazol-3-yl)phenyl)amino)pyridin-2-yl)amino)picolinonitrile], the pKd in assay [1] (setting [3]) was 9.00 to 10.00.
For `COc1c(Nc2cc(Nc3cc(C)nc(C)n3)ncc2-c2nnc(CO)o2)cccc1-c1ncn(C)n1` [VIII-14, (5-(6-((2,6-dimethylpyrimidin-4-yl)amino)-4-((2-methoxy-3-(1-methyl-1H-1,2,4-triazol-3-yl)phenyl)amino)pyridin-3-yl)-1,3,4-oxadiazol-2-yl)methanol], the pKd in assay [1] (setting [3]) is 9.00 to 10.00.
The same measure, in the same setting: the figure for `COc1c(Nc2cc(Nc3cccc(C#N)n3)ncc2-c2ncc(Cl)s2)cccc1-c1nnn(C)n1` [VIII-15, 6-((5-(5-chlorothiazol-2-yl)-4-((2-methoxy-3-(2-methyl-2H-tetrazol-5-yl)phenyl)amino)pyridin-2-yl)amino)picolinonitrile] is 8.00 to 9.00.
Still for that read-out and setting: the value for `COc1c(Nc2cc(Nc3ccc(C)nn3)ncc2-c2ncc(Cl)s2)cccc1-c1nnn(C)n1` [VIII-16, 5-(5-chlorothiazol-2-yl)-N4-(2-methoxy-3-(2-methyl-2H-tetrazol-5-yl)phenyl)-N2-(6-methylpyridazin-3-yl)pyridine-2,4-diamine] was 9.00 to 10.00.
On the same count and under the same terms, the value for `COCc1ccnc(Nc2cc(Nc3cccc(-c4nnn(C)n4)c3OC)c(-c3ncc(Cl)s3)cn2)c1` [VIII-17, 5-(5-chlorothiazol-2-yl)-N4-(2-methoxy-3-(2-methyl-2H-tetrazol-5-yl)phenyl)-N2-(4-(methoxymethyl)pyridin-2-yl)pyridine-2,4-diamine] was 9.00 to 10.00.
With `CNc1nn(-c2cccc(-c3ncn(C)n3)c2OC)c2cc(NC(=O)C3CC3)ncc12` [XVI-1, N-(1-(2-methoxy-3-(1-methyl-1H-1,2,4-triazol-3-yl)phenyl)-3-(methylamino)-1H-pyrazolo[4,3-c]pyridin-6-yl)cyclopropanecarboxamide], the negative-log Kd (pKd) in assay [1] (setting [3]) is 7.00 to 8.00; in assay [1] (setting [4]) it was 5.00 to 5.15.
Take `CNc1nc(-c2cccc(-c3nnn(C)n3)c2OC)n2cc(NC(=O)C3CC3)ncc12` [XVI-2]: the pKd in assay [1] (setting [3]) was less than 7.00; in assay [1] (setting [4]), 6.73 to 8.00.
Take `CNc1nn(-c2cccc(-c3nnn(C)n3)c2OC)c2cc(NC(=O)C3CC3)ncc12` [XVI-3, N-(1-(2-methoxy-3-(2-methyl-2H-tetrazol-5-yl)phenyl)-3-(methylamino)-1H-pyrazolo[4,3-c]pyridin-6-yl)cyclopropanecarboxamide]: the values for the negative-log Kd (pKd) in assay [1] (setting [3]) and in assay [1] (setting [4]) were less than 7.00 and 5.00 to 5.15, respectively.
As to `CCc1nn(-c2cccc(-c3nnn(C)n3)c2OC)c2cc(NC(=O)C3CC3)ncc12` [XVI-4, N-(3-ethyl-1-(2-methoxy-3-(2-methyl-2H-tetrazol-5-yl)phenyl)-1H-pyrazolo[4,3-c]pyridin-6-yl)cyclopropanecarboxamide], the negative logarithm of the Kd (pKd) in assay [1] (setting [3]) is 9.00 to 10.00.
As for `CCn1nc(-c2cccc(-c3nnn(C)n3)c2OC)c2cc(NC(=O)C3CC3)ncc21` [XVI-5, N-(1-ethyl-3-(2-methoxy-3-(2-methyl-2H-tetrazol-5-yl)phenyl)-1H-pyrazolo[3,4-c]pyridin-5-yl)cyclopropanecarboxamide], the negative-log Kd (pKd) in assay [1] (setting [3]) was 7.00 to 8.00.
Same read-out and setting: the figure for `CCn1cc(-c2cccc(-c3nnn(C)n3)c2OC)c2cc(NC(=O)C3CC3)ncc21` [XVI-6, N-(1-ethyl-3-(2-methoxy-3-(2-methyl-2H-tetrazol-5-yl)phenyl)-1H-pyrrolo[2,3-c]pyridin-5-yl)cyclopropanecarboxamide] is 7.00 to 8.00.

Values taken from patent publication US10323036B2 (Nimbus Lakshmi, Inc., priority 2016, dated 2019).
